Assay results taken from ChEMBL document CHEMBL1145498, “A systematic interaction map of validated kinase inhibitors with Ser/Thr kinases” (Proc Natl Acad Sci U S A, 2007).

What follows are molecules tested against Serine/threonine-protein kinase 26 (Homo sapiens) (UniProt Q9P289).
Serine/threonine-protein kinase 26 (Homo sapiens), sequence (Q9P289 2-416 limits assumed): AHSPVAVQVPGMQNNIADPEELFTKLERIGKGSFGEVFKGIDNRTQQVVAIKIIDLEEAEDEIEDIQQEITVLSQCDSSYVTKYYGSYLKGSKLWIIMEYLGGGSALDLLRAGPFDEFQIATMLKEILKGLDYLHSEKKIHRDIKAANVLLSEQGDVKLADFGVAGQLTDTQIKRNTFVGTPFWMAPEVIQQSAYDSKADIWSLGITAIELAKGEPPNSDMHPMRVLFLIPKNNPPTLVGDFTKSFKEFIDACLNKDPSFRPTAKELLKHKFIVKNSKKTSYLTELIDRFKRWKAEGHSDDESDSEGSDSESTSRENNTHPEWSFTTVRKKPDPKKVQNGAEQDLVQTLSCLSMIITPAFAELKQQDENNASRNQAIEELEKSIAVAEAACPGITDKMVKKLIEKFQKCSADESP
In the case of `COc1ccc(Cl)cc1NC(=O)Nc1cc(C)nc2ccccc12`, the ΔTm is reported as 1.1 °C.
`O=C(Nc1cccc(Nc2nccc(Nc3cccc(C(F)(F)F)c3)n2)c1)C1CC1` [ANILINOPYRIMIDINE1] was tested, and the ΔTm was 1.5 °C.
`CCCNC(=O)Nc1ccc(Oc2ncnc3cc(OC)c(OC)cc23)cc1Cl` [KRN-633] gave a ΔTm of 1.2 °C.
`Cc1nc(N)sc1-c1ccnc(Nc2cccc([N+](=O)[O-])c2)n1` was tested, and the ΔTm was 0.4 °C.

What follows are molecules tested against Calcium/calmodulin-dependent protein kinase kinase 2 (Homo sapiens, UniProt Q96RR4).
Calcium/calmodulin-dependent protein kinase kinase 2, sequence (Q96RR4 2-588 limits assumed): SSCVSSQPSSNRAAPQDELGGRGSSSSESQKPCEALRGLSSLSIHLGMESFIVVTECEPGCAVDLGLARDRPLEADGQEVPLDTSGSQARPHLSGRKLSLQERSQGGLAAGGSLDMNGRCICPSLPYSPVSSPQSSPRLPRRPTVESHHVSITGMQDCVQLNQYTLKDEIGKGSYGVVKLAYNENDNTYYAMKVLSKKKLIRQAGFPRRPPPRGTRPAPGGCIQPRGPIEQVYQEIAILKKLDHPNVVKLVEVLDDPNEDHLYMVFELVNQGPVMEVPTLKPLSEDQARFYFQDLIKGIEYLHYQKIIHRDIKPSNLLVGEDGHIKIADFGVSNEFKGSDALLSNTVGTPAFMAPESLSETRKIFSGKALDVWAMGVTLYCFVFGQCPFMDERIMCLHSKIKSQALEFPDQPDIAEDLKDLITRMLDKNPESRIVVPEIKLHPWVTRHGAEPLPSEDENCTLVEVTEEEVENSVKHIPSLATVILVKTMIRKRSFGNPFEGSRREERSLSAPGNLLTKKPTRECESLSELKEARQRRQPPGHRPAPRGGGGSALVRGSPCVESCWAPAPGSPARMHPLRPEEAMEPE
`COc1ccc(Cl)cc1NC(=O)Nc1cc(C)nc2ccccc12` gave a ΔTm of 0.4 °C.
`O=C(Nc1cccc(Nc2nccc(Nc3cccc(C(F)(F)F)c3)n2)c1)C1CC1` [ANILINOPYRIMIDINE1] was tested, and the ΔTm was 2 °C.
`CCCNC(=O)Nc1ccc(Oc2ncnc3cc(OC)c(OC)cc23)cc1Cl` [KRN-633] showed a ΔTm of 0.7 °C.
Molecule `Cc1nc(N)sc1-c1ccnc(Nc2cccc([N+](=O)[O-])c2)n1` has a ΔTm of 3.6 °C.

What follows are molecules tested against Tyrosine-protein kinase JAK1 (Homo sapiens) (UniProt P23458).
Tyrosine-protein kinase JAK1 (Homo sapiens), sequence (P23458 whole entry): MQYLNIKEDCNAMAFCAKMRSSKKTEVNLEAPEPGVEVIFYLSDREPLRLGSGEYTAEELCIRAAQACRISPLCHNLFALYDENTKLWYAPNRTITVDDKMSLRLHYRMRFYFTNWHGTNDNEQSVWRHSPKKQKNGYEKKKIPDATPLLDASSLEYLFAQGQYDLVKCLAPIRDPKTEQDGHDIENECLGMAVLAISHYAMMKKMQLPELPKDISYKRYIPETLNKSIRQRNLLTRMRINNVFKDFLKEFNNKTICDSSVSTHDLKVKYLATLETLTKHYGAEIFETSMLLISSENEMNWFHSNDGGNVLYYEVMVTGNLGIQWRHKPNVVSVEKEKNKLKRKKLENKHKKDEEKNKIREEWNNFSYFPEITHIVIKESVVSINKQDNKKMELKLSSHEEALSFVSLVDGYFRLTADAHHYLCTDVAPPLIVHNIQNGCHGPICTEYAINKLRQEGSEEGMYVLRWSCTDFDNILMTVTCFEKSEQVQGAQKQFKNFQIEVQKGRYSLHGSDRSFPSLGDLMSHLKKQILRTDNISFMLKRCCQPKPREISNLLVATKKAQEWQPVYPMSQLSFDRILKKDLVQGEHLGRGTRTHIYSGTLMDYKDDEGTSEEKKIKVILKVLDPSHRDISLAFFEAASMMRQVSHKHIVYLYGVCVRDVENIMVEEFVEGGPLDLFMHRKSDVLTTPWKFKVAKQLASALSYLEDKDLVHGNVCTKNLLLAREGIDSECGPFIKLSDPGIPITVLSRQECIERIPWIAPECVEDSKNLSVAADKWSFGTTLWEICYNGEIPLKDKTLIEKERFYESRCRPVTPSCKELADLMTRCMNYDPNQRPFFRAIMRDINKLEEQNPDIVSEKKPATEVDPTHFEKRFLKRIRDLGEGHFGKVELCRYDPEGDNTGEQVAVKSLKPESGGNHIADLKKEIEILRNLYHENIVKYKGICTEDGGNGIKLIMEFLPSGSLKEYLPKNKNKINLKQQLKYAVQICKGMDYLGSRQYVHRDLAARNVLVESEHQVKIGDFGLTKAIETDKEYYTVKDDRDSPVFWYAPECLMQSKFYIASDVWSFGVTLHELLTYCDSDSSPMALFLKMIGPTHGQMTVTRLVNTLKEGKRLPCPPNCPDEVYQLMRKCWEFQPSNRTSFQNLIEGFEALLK
In the case of `COc1ccc(Cl)cc1NC(=O)Nc1cc(C)nc2ccccc12`, the ΔTm is reported as 0.5 °C.
`O=C(Nc1cccc(Nc2nccc(Nc3cccc(C(F)(F)F)c3)n2)c1)C1CC1` [ANILINOPYRIMIDINE1] gave a ΔTm of 2.6 °C.
Work on `CCCNC(=O)Nc1ccc(Oc2ncnc3cc(OC)c(OC)cc23)cc1Cl` [KRN-633] yielded a ΔTm of 1 °C.
`Cc1nc(N)sc1-c1ccnc(Nc2cccc([N+](=O)[O-])c2)n1` showed a ΔTm of 4.8 °C.

Each molecule was assayed against T1, Serine/threonine-protein kinase 17A (Homo sapiens) (UniProt Q9UEE5).
T1 sequence (whole entry): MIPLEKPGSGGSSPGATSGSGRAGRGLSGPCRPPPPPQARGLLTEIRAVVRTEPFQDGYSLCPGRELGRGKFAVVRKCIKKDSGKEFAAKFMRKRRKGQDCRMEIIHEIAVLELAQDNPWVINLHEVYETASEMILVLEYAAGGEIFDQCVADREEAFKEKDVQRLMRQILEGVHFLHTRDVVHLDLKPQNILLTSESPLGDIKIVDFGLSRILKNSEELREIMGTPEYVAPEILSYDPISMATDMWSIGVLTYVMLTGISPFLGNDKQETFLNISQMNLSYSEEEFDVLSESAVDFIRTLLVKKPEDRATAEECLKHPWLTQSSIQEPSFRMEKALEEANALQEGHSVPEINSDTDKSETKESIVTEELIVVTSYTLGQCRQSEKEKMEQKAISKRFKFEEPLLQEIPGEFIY
`COc1ccc(Cl)cc1NC(=O)Nc1cc(C)nc2ccccc12` was tested, and the ΔTm was -0.1 °C.
For `O=C(Nc1cccc(Nc2nccc(Nc3cccc(C(F)(F)F)c3)n2)c1)C1CC1` [ANILINOPYRIMIDINE1], the ΔTm was 1.5 °C.
For `CCCNC(=O)Nc1ccc(Oc2ncnc3cc(OC)c(OC)cc23)cc1Cl` [KRN-633], the ΔTm was 2.7 °C.
`Cc1nc(N)sc1-c1ccnc(Nc2cccc([N+](=O)[O-])c2)n1` gave a ΔTm of 1.9 °C.

What follows are molecules tested against cAMP-dependent protein kinase catalytic subunit alpha (Homo sapiens) (UniProt P17612).
With `COc1ccc(Cl)cc1NC(=O)Nc1cc(C)nc2ccccc12` the ΔTm was 4.8 °C.
For `O=C(Nc1cccc(Nc2nccc(Nc3cccc(C(F)(F)F)c3)n2)c1)C1CC1` [ANILINOPYRIMIDINE1], the ΔTm was 1.3 °C.
`CCCNC(=O)Nc1ccc(Oc2ncnc3cc(OC)c(OC)cc23)cc1Cl` [KRN-633] was tested, and the ΔTm was 1 °C.
Molecule `Cc1nc(N)sc1-c1ccnc(Nc2cccc([N+](=O)[O-])c2)n1` has a ΔTm of 4.8 °C.

What follows are molecules tested against Serine/threonine-protein kinase pim-2 (Homo sapiens, UniProt Q9P1W9).
Serine/threonine-protein kinase pim-2, sequence (Q9P1W9 whole entry, looked up): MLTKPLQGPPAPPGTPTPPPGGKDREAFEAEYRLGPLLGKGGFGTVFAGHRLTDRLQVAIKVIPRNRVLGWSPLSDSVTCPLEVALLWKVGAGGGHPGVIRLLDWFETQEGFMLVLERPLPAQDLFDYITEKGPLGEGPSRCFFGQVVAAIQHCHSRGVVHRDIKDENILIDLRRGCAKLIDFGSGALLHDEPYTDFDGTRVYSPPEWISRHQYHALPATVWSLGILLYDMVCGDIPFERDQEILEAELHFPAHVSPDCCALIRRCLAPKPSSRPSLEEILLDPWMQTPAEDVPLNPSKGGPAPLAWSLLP
`COc1ccc(Cl)cc1NC(=O)Nc1cc(C)nc2ccccc12` showed a ΔTm of 1 °C.
For `O=C(Nc1cccc(Nc2nccc(Nc3cccc(C(F)(F)F)c3)n2)c1)C1CC1` [ANILINOPYRIMIDINE1], the ΔTm was 6.9 °C.
Molecule `CCCNC(=O)Nc1ccc(Oc2ncnc3cc(OC)c(OC)cc23)cc1Cl` [KRN-633] has a ΔTm of 0.2 °C.
`Cc1nc(N)sc1-c1ccnc(Nc2cccc([N+](=O)[O-])c2)n1` was tested, and the ΔTm was 8.1 °C.

These molecules were tested against Cyclin-dependent kinase 16 (Homo sapiens) (UniProt Q00536).
Cyclin-dependent kinase 16 (Homo sapiens), sequence (Q00536 whole entry): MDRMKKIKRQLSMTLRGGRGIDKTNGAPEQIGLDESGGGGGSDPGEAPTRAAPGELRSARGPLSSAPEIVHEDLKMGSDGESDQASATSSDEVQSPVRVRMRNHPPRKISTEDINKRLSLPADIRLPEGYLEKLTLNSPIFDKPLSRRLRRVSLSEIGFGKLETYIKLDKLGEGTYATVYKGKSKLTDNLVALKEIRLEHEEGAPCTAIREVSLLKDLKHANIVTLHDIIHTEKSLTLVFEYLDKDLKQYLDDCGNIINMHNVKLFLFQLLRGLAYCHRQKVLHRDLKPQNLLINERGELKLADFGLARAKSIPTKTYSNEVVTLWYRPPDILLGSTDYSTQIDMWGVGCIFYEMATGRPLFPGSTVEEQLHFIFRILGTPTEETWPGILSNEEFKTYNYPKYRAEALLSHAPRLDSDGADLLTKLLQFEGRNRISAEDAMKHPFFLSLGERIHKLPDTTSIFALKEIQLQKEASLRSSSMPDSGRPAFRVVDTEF
`COc1ccc(Cl)cc1NC(=O)Nc1cc(C)nc2ccccc12` was tested, and the ΔTm was 0.5 °C.
With `O=C(Nc1cccc(Nc2nccc(Nc3cccc(C(F)(F)F)c3)n2)c1)C1CC1` [ANILINOPYRIMIDINE1] the ΔTm was 3.2 °C.
Molecule `CCCNC(=O)Nc1ccc(Oc2ncnc3cc(OC)c(OC)cc23)cc1Cl` [KRN-633] has a ΔTm of -0.1 °C.
For `Cc1nc(N)sc1-c1ccnc(Nc2cccc([N+](=O)[O-])c2)n1`, the ΔTm was 3.9 °C.

What follows are molecules tested against Serine/threonine-protein kinase 10 (Homo sapiens) (UniProt O94804).
Molecule `COc1ccc(Cl)cc1NC(=O)Nc1cc(C)nc2ccccc12` has a ΔTm of 0.6 °C.
`O=C(Nc1cccc(Nc2nccc(Nc3cccc(C(F)(F)F)c3)n2)c1)C1CC1` [ANILINOPYRIMIDINE1] showed a ΔTm of 1 °C.
`CCCNC(=O)Nc1ccc(Oc2ncnc3cc(OC)c(OC)cc23)cc1Cl` [KRN-633] gave a ΔTm of 0.4 °C.
Work on `Cc1nc(N)sc1-c1ccnc(Nc2cccc([N+](=O)[O-])c2)n1` yielded a ΔTm of 1.5 °C.

These molecules were tested against 5'-AMP-activated protein kinase catalytic subunit alpha-2 (Homo sapiens) (UniProt P54646).
5'-AMP-activated protein kinase catalytic subunit alpha-2 (Homo sapiens), sequence (P54646 whole entry, looked up): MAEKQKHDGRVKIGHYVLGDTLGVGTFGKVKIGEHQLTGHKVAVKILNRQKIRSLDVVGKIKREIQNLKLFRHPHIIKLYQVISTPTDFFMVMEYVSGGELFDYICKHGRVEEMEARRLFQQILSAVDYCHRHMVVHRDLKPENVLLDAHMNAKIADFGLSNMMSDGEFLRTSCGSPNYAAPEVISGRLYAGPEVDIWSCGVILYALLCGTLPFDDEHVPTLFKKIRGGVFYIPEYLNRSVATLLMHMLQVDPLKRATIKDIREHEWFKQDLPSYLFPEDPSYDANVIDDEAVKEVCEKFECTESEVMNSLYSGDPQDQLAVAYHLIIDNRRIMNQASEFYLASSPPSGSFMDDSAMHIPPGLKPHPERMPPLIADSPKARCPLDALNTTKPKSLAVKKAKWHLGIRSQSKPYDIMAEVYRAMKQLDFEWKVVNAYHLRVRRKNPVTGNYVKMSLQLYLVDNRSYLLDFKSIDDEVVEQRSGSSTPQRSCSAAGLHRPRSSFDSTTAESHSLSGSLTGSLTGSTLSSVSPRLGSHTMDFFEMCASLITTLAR
With `COc1ccc(Cl)cc1NC(=O)Nc1cc(C)nc2ccccc12` the ΔTm was -0.4 °C.
With `O=C(Nc1cccc(Nc2nccc(Nc3cccc(C(F)(F)F)c3)n2)c1)C1CC1` [ANILINOPYRIMIDINE1] the ΔTm was 1.5 °C.
For `CCCNC(=O)Nc1ccc(Oc2ncnc3cc(OC)c(OC)cc23)cc1Cl` [KRN-633], the ΔTm was 2.1 °C.
`Cc1nc(N)sc1-c1ccnc(Nc2cccc([N+](=O)[O-])c2)n1` showed a ΔTm of 3 °C.

What follows are molecules tested against Casein kinase I isoform gamma-3 (Homo sapiens) (UniProt Q9Y6M4).
Casein kinase I isoform gamma-3 (Homo sapiens), sequence (Q9Y6M4 whole entry, looked up, canonical isoform): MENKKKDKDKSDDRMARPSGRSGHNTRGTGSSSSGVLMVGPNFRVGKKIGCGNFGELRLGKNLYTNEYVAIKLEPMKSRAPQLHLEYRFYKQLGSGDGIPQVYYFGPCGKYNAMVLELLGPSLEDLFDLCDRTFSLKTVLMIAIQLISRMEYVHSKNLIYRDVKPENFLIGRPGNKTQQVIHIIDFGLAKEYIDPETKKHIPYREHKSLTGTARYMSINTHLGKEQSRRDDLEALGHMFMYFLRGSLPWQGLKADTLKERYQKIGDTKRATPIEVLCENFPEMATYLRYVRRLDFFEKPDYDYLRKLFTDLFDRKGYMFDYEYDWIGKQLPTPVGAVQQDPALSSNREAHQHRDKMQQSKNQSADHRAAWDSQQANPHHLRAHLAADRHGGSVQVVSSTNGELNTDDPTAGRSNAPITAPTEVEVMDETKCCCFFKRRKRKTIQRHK
For `COc1ccc(Cl)cc1NC(=O)Nc1cc(C)nc2ccccc12`, the ΔTm was 0.9 °C.
With `O=C(Nc1cccc(Nc2nccc(Nc3cccc(C(F)(F)F)c3)n2)c1)C1CC1` [ANILINOPYRIMIDINE1] the ΔTm was 2.2 °C.
With `CCCNC(=O)Nc1ccc(Oc2ncnc3cc(OC)c(OC)cc23)cc1Cl` [KRN-633] the ΔTm was -3.7 °C.
Molecule `Cc1nc(N)sc1-c1ccnc(Nc2cccc([N+](=O)[O-])c2)n1` has a ΔTm of 1.3 °C.

What follows are molecules tested against Serine/threonine-protein kinase PAK 6 (Homo sapiens) (UniProt Q9NQU5).
`COc1ccc(Cl)cc1NC(=O)Nc1cc(C)nc2ccccc12` was tested, and the ΔTm was 1.9 °C.
Work on `O=C(Nc1cccc(Nc2nccc(Nc3cccc(C(F)(F)F)c3)n2)c1)C1CC1` [ANILINOPYRIMIDINE1] yielded a ΔTm of -0.9 °C.
`CCCNC(=O)Nc1ccc(Oc2ncnc3cc(OC)c(OC)cc23)cc1Cl` [KRN-633] showed a ΔTm of 0.8 °C.
Molecule `Cc1nc(N)sc1-c1ccnc(Nc2cccc([N+](=O)[O-])c2)n1` has a ΔTm of -1.1 °C.

These molecules were tested against Serine/threonine-protein kinase Nek6 (Homo sapiens) (UniProt Q9HC98).
Serine/threonine-protein kinase Nek6 (Homo sapiens), sequence (Q9HC98 whole entry): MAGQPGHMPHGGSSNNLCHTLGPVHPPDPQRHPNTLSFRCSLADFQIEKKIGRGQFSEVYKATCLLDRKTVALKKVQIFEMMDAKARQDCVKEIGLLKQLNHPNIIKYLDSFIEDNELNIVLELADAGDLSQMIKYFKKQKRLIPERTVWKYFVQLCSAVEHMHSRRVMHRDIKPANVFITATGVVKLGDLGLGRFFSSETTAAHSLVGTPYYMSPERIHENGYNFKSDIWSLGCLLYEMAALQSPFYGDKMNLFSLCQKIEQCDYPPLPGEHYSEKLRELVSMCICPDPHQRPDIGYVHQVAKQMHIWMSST
`COc1ccc(Cl)cc1NC(=O)Nc1cc(C)nc2ccccc12` gave a ΔTm of 0 °C.
In the case of `O=C(Nc1cccc(Nc2nccc(Nc3cccc(C(F)(F)F)c3)n2)c1)C1CC1` [ANILINOPYRIMIDINE1], the ΔTm is reported as 1.7 °C.
`CCCNC(=O)Nc1ccc(Oc2ncnc3cc(OC)c(OC)cc23)cc1Cl` [KRN-633] was tested, and the ΔTm was 0.8 °C.
For `Cc1nc(N)sc1-c1ccnc(Nc2cccc([N+](=O)[O-])c2)n1`, the ΔTm was 1.4 °C.

What follows are molecules tested against T2, Mitogen-activated protein kinase kinase kinase 5 (Homo sapiens) (UniProt Q99683).
T2 sequence (whole entry): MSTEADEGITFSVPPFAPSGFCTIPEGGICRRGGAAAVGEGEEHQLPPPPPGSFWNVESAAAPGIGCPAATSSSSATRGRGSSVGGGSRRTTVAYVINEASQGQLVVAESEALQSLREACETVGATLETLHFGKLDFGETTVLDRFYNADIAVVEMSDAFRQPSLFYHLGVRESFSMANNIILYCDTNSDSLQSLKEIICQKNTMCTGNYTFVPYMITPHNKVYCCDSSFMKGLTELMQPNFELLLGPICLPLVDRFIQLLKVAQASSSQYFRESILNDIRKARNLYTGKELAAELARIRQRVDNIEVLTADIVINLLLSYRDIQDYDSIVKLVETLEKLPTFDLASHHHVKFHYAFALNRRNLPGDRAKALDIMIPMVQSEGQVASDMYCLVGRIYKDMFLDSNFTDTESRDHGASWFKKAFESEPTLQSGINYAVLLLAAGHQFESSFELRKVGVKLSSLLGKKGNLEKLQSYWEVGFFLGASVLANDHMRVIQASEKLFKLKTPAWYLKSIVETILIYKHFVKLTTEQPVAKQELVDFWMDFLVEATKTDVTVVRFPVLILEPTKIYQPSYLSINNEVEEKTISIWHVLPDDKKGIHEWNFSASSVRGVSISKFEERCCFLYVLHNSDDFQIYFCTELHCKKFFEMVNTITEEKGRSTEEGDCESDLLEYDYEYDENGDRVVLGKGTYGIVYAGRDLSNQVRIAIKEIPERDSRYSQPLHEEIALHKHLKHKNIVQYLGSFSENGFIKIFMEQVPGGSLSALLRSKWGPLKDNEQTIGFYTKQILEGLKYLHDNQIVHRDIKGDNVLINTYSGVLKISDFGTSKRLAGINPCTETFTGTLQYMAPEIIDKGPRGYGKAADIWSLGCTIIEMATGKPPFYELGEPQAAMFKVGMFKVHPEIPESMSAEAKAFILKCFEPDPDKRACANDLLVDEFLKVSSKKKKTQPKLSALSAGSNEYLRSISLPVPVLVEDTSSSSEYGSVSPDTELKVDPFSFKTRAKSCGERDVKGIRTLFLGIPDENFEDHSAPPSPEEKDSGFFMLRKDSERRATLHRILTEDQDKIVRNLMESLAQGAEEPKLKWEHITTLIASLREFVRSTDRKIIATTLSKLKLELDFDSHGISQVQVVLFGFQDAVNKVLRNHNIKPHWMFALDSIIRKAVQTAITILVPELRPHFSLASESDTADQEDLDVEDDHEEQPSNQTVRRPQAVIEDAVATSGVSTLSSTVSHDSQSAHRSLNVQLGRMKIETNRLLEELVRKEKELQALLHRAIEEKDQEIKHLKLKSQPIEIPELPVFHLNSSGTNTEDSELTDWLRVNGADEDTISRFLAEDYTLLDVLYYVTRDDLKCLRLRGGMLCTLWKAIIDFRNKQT
`COc1ccc(Cl)cc1NC(=O)Nc1cc(C)nc2ccccc12` showed a ΔTm of 2.2 °C.
`O=C(Nc1cccc(Nc2nccc(Nc3cccc(C(F)(F)F)c3)n2)c1)C1CC1` [ANILINOPYRIMIDINE1] gave a ΔTm of 0.2 °C.
With `CCCNC(=O)Nc1ccc(Oc2ncnc3cc(OC)c(OC)cc23)cc1Cl` [KRN-633] the ΔTm was 0.3 °C.
`Cc1nc(N)sc1-c1ccnc(Nc2cccc([N+](=O)[O-])c2)n1` gave a ΔTm of 1.2 °C.

The molecules below were run against Serine/threonine-protein kinase 38 (Homo sapiens) (UniProt Q15208).
Serine/threonine-protein kinase 38 (Homo sapiens), sequence (Q15208 2-465 limits assumed): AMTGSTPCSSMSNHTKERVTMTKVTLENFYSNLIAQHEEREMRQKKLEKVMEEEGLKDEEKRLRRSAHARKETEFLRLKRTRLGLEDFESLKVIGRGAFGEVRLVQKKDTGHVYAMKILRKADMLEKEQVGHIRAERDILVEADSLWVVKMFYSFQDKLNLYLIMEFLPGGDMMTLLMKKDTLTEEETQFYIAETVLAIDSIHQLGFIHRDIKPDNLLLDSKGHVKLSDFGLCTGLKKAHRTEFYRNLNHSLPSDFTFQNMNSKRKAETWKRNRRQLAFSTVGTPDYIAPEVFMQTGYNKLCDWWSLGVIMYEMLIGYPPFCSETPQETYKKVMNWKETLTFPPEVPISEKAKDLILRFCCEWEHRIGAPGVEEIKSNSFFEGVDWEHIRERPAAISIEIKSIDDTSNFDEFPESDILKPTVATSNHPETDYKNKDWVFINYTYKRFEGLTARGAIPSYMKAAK
Molecule `COc1ccc(Cl)cc1NC(=O)Nc1cc(C)nc2ccccc12` has a ΔTm of 0.1 °C.
`O=C(Nc1cccc(Nc2nccc(Nc3cccc(C(F)(F)F)c3)n2)c1)C1CC1` [ANILINOPYRIMIDINE1] gave a ΔTm of 0.4 °C.
Work on `CCCNC(=O)Nc1ccc(Oc2ncnc3cc(OC)c(OC)cc23)cc1Cl` [KRN-633] yielded a ΔTm of 1.6 °C.
`Cc1nc(N)sc1-c1ccnc(Nc2cccc([N+](=O)[O-])c2)n1` gave a ΔTm of 0.6 °C.
